Data published in patent US20260137700A1, “PHARMACEUTICAL COMBINATION OF PRMT5 INHIBITOR AND DNA DAMAGE-INDUCING SUBSTANCE” (SK Biopharmaceuticals Co., Ltd., priority 2022, published 2026).

Columns and labels:
[1] = tested on: symmetric dimethyl arginine (SDMA); test: In vivo target inhibition: SDMA ELISA in tumor samples of the Mia PaCa-2 xenograft mouse model; settings: co-administration with 60 mg/kg gemcitabine
Method: Quantitative reduction levels of symmetric dimethyl arginine (SDMA) in tumor samples harvested from a subcutaneous xenograft mouse model of Mia PaCa-2 were measured by enzyme-linked immunosorbent assay (ELISA).
Reagents: Bradford solution (catalog no. 500-0006) was purchased from Bio-rad (USA). SDMA antibody (catalog no. 13222s) was purchased from Cell signaling Technology (USA). SmD3 antibody (catalog no. ap12451a) was purchased from Abgent (USA). Secondary antibody (catalog no. ab6721) and TMB substrate (catalog no. ab210902) were purchased from Abcam (UK).
Experimental procedure: Tumor tissue transplanted into mice was extracted, cells were lysed, and quantified with Bradford solution. […] of protein per sample was diluted with carbonate-bicarbonate buffer, dispensed into a 96-well plate, and reacted at room temperature for 2 hours. After washing three times with phosphate-buffered saline (PBST) containing 0.05% Tween-20, 200 μL of PBST containing 5% bovine serum albumin (BSA) (BSA-PBST) was added, and reacted at room temperature for 2 hours. After washing three times with PBST, 100 μL of SDMA antibody and SmD3 antibody were diluted in BSA-PBST, each was dispensed, and reacted overnight at 4° C. After washing three times with PBST on next day, 100 μL of secondary antibody diluted in BSA-PBST was added, and reacted at room temperature for 1 hour. After washing three times with PBST, 100 μL of TMB substrate was added and reacted at room temperature for 10-20 minutes, and 100 μL of 1N sulfuric acid solution was added to terminate the reaction. Then, the degree of SDMA inhibition by the compound was calculated by measuring the absorbance at 450 nm.

[2] = tested on: cancer cell lines of Table 2 (A549, A549/CR, A549/PR, CAPAN-1, NCI-H1048, MDA-MB-231, Mia PaCa-2, SNU-324, OVCAR3, PA-1, PANC-1, U-87 MG); test: Cell viability assay (WST) with combination synergy analysis (Bliss score); format: cell-based, human; settings: combination with various DNA damage inducers, FIGS. 1 to 25; culture ended on days 7 to 9
Method: Most cell lines were obtained from the American Type Culture Collection (ATCC) or the Korean Cell Line Bank (KCLB). Combination experiments in cisplatin-resistant and paclitaxel-resistant cell lines were performed at the Asan Preclinical Evaluation center for cancer therapeutiX of Asan Medical Center, Seoul. All cell lines were maintained in appropriate growth medium for the cell line in 100-pi dishes oRT75 (75 cm2) flasks, cultured at 37° C. with 5% CO2, and passaged every 3-4 days. Growth medium conditions and cell line information are listed in Table 2, and the cells were counted using Countess (Invitrogen) to obtain the number of viable cells. Mutation and HRD status by cell type are described in Table 3.
The next day, compound-87 was diluted 1/2 to 1/4 to a concentration of 20 μM to 0.002 μM and treated at a set concentration range, and the co-administered drug was diluted 1/2 to 1/3 to a concentration of 100 μM to 0.00046 μM and treated at a 1:1 (v/v) ratio. Finally, the treatment ratio of compound-87 and the co-administered substance was between 1:20000 and 1:0.00015, and in clinical practice, compound-87: drug to be co-administered can be treated at a ratio of 1:10000 to 1:0.0001.
PANC-1 (wild-type BRCA1/BRCA2) pancreatic cancer cells were treated with compound-87 at concentrations of […], and E7016, a PARP inhibitor as a co-administered agent at concentration of 0.078, 0.156, 0.313, 0.625, 1.25, 2.5, 5, or 10 μM (FIG. 25). Cell culture was terminated on days 7 to 9, and cell viability and synergistic effect were evaluated for each combination of concentrations.
Cell viability was measured by a colorimetric assay using water-soluble tetrazolium salt (WST). […]
Results are normalized to DMSO-treated groups as 100% and expressed as the percent of viable cells upon compound addition. […]
The synergy of each compound was analyzed using Combenefit software (Cambridge Research UK, Cambridge Institute, University of Cambridge, United Kingdom), and synergy was evaluated by using Blliss (Ref: Di Veroli et al., 2016, Bioinformatics 32(18):2866-2868). […]

[3] = tested on: human small cell lung cancer cells NCI-H1048; test: Subcutaneous xenograft mouse model of NCI-H1048 small cell lung cancer cells, tumor growth inhibition; format: in vivo; settings: day 23; cisplatin alone, 4 mg/kg intraperitoneally once a week
Method: For in vivo efficacy study in a subcutaneous xenograft mouse model of human small cell lung cancer cells NCI-H1048, co-administration of compound-87 as a PRMT5 inhibitor according to an example of the present invention and cisplatin as an alkylating agent of a chemotherapeutic agent, was performed. To produce a small cell lung cancer xenograft model, 10 million of NCI-H1048 cells were injected subcutaneously into the right flank of female nude mice, and tumor growth was monitored.
To evaluate the anticancer effect, when the tumor volume reached approximately 162 mm^3 on average, the mice were divided into four groups. The all group included a solvent-treated group (Vehicle 1 (Compound-87)+Vehicle 2 (cisplatin) group), a Compound-87 monotherapy group (50 mg/kg), a cisplatin monotherapy group (4 mg/kg), and combination therapy group of Compound-87 and cisplatin. The Compound-87 treatment group was administered orally on a 3-day administration/4-day non-administration schedule, and cisplatin was administered intraperitoneally once a week for 22 days (Day 1-Day 23). All mice were euthanized on Day 22 (Day 23).

[4] = tested on: CTG-1932, a human non-small cell lung cancer patient-derived cell line; test: Subcutaneous xenograft mouse model of patient-derived CTG-1932 non-small cell lung cancer, tumor growth inhibition; format: in vivo; settings: day 9; paclitaxel 20 mg/kg i.p. once a week, single treatment; significant
Method: For in vivo efficacy studies in a subcutaneous xenograft mouse model of CTG-1932, a human non-small cell lung cancer patient-derived cell line, combination therapy of compound-87 as a PRMT5 inhibitor according to one example of the present invention and with paclitaxel as a chemotherapy agent, was performed at Champions Oncology (USA).
To produce a non-small cell lung cancer xenograft model, CTG-1932 tumor stock was grown and harvested from primary mice and then transplanted subcutaneously into the left flank of immunocompromised female mice as a 5×5×5 mm^3 tumor fragment. When the tumor volume reached approximately 150-300 mm^3, the mice were separated into four groups of 10 each. All group consisted of a solvent-treated group (vehicle group), a compound-87 monotherapy group (50 mg/kg, oral administration, 3 days on/4 days off), a paclitaxel monotherapy group (20 mg/kg, intraperitoneal administration once a week), and combination treatment group of compound-87 (50 mg/kg, oral administration, 3 days on/4 days off) and paclitaxel (20 mg/kg, intraperitoneal administration once a week). tumor volume and body weight were measured twice a week.

[5] = tested on: glioblastoma; settings: glioblastoma chemotherapy; cited from earlier work

For `CC(=O)N1CCC(Oc2ccc3c(c2)OCCN(C[C@H](O)CN2CCc4ccccc4C2)C3=O)CC1` [Compound-78, 8-[(1-acetyl-4-piperidyl)oxy]-4-[(2R)-3-(3,4-dihydro-1H-isoquinolin-2-yl)-2-hydroxy-propyl]-2,3-dihydro-1,4-benzoxazepin-5-one], the “SDMA amount in tumor samples compared to the vehicle group” value ([1]; 25 mg/kg) was 33.5%, the “SDMA amount in tumor samples compared to the vehicle group” value ([1]; 50 mg/kg) was 24.9% and the inhibition at 25 mg/kg ([1]; Mus musculus, MIA PaCa-2, 25 mg/kg) was 66.5%. It also gave an inhibition at 50 mg/kg ([1]; Mus musculus, MIA PaCa-2, 50 mg/kg) of 75.1%.
With `CN1CCC(Oc2ccc3c(c2)OC(C)(C)CN(C[C@H](O)CN2CCc4ccccc4C2)C3=O)CC1` [Compound-112, 4-[(2R)-3-(3,4-dihydro-1H-isoquinolin-2-yl)-2-hydroxy-propyl]-2,2-dimethyl-8-[(1-methyl-4-piperidyl)oxy]-3H-1,4-benzoxazepin-5-one] the “inhibition of cell viability, combination treatment compared to single agent” value [2] was “enhanced inhibition effects of cell viability”.
With `O=C1c2ccc(O[C@@H]3CCN(C4COC4)C3)cc2OCCN1C[C@H](O)CN1CCc2ccccc2C1` [Compound-271, 4-[(2R)-3-(3,4-dihydro-1H-isoquinolin-2-yl)-2-hydroxy-propyl]-8-[(3R)-1-(oxetan-3-yl)pyrrolidin-3-yl]oxy-2,3-dihydro-1,4-benzoxazepin-5-one] the “inhibition of cell viability, combination treatment compared to single agent” value [2] was “enhanced inhibition effects of cell viability”.
For `N.N.[Cl][Pt][Cl]` [cisplatin, azane; dichloroplatinum, reference compound], the “tumor growth inhibition rate” value [3] was 62.9%.
For `CC(=O)O[C@H]1C(=O)[C@@]2(C)[C@H]([C@H](OC(=O)c3ccccc3)[C@]3(O)C[C@H](OC(=O)[C@H](O)[C@@H](NC(=O)c4ccccc4)c4ccccc4)C(C)=C1C3(C)C)[C@]1(OC(C)=O)CO[C@@H]1C[C@@H]2O` [paclitaxel, [(1S,2S,3R,4S,7R,9S,10S,12R,15S)-4,12-diacetyloxy-15-[(2R,3S)-3-benzamido-2-hydroxy-3-phenylpropanoyl]oxy-1,9-dihydroxy-10,14,17,17-tetramethyl-11-oxo-6-oxatetracyclo[11.3.1.03,10.04,7]heptadeca-13-en-2-yl]benzoate, reference compound], the “tumor growth inhibition compared to the solvent-treated group” value [4] was 75%.
For `Cn1nnc2c(C(N)=O)ncn2c1=O` [temozolomide, 3-methyl-4-oxoimidazo[5,1-d][1,2,3,5]tetrazine-8-carboxamide], the average survival [5] is listed as at most 14.5 months.
